Experiment [1] addresses T1, Caspase-7 (Homo sapiens, UniProt P55210).
T1 sequence (P55210 whole entry): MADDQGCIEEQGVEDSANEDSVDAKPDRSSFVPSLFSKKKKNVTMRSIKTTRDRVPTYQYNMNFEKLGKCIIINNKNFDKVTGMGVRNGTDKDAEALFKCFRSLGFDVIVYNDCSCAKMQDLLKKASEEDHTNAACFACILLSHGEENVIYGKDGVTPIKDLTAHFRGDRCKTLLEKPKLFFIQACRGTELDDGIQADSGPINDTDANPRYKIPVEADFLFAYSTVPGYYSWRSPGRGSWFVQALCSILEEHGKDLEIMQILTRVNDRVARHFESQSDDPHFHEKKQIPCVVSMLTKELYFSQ
The experiment in a line: Inhibitory activity against recombinant human Caspase-7.

In experiment [2] the target is T2, Caspase-1 (Homo sapiens, UniProt P29466).
T2 sequence (P29466 whole entry): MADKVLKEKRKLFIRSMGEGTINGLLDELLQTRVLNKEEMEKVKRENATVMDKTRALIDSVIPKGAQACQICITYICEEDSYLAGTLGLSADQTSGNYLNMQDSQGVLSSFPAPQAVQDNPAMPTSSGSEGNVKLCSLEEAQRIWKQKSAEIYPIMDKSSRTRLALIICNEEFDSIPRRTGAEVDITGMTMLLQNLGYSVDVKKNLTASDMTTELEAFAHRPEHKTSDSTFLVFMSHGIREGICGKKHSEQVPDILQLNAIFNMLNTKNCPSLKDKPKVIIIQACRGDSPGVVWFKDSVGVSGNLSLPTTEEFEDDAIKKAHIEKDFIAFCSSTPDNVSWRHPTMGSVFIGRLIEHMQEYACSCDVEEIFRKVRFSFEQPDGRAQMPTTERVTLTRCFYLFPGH
The experiment in a line: Inhibitory activity against recombinant human Caspase-1.

For experiment [3], the target named is Caspase-8 (Homo sapiens, UniProt Q14790). The experiment can be described thus: Inhibitory activity against recombinant human Caspase-8.
Caspase-8, sequence (Q14790 217-374 limits assumed): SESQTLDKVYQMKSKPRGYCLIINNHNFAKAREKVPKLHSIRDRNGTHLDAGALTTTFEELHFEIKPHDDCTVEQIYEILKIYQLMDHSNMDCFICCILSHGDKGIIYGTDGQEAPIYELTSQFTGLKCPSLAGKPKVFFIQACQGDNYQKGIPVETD
Caspase-8, sequence (Q14790 385-479 limits assumed): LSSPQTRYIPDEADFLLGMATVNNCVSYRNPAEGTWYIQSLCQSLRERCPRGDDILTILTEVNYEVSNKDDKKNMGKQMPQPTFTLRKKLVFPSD
Experiment [4] concerns the target T3, Caspase-3 (Homo sapiens, UniProt P42574).
T3 sequence (P42574 whole entry): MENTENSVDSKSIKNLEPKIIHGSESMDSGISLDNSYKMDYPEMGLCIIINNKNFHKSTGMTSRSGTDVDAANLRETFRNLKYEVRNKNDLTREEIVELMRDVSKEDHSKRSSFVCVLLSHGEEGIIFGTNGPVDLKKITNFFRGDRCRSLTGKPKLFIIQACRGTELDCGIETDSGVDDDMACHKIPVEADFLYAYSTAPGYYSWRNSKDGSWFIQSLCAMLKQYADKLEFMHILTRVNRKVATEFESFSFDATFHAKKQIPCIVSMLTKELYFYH
The experiment in a line: Inhibitory activity against recombinant human Caspase-3.

Each structure is given as a SMILES string.

By IC50 is commonly meant the concentration at which inhibition is half-maximal. `CC(C)[C@H](NC(=O)C(O)(C(F)(F)F)C(F)(F)F)C(=O)N[C@@H](CC(=O)O)C(=O)CSCc1ccccc1`: the half-maximal inhibitory concentration (IC50) is over 10 µM in experiment [1], over 10 µM in experiment [2], over 10 µM in experiment [3] and 0.146 µM in experiment [4].

With `CC(C)[C@H](NC(=O)C1(O)CC1)C(=O)N[C@@H](CC(=O)O)C(=O)CSCc1ccccc1`, the concentration for half-maximal inhibition (IC50) in experiment [1] was determined as 5.09 µM; in experiment [2], 9.59 µM; in experiment [3] it was 12.3 µM; in experiment [4] it was 0.16 µM.

With `CC(C)[C@H](NC(=O)[C@H](O)c1ccccc1)C(=O)N[C@@H](CC(=O)O)C(=O)CSCc1ccccc1`, the IC50 in experiment [1] worked out at 1.05 µM; in experiment [2], 4.16 µM; in experiment [3] it was 1.15 µM; in experiment [4], 0.041 µM.

In the case of `CCC(O)(CC)C(=O)N[C@H](C(=O)N[C@@H](CC(=O)O)C(=O)CSCc1ccccc1)C(C)C`, the 50% inhibitory concentration (IC50) in experiment [1] was over 10 µM; in experiment [2], over 10 µM; in experiment [3], 9.58 µM; in experiment [4] it was 2.02 µM.

On to `CCC[C@@H](C(=O)N[C@H](C(=O)N[C@@H](CC(=O)O)C(=O)CSCc1ccccc1)C(C)C)c1cc(Br)ccc1OC`, for which the IC50 in experiment [2] is over 10 µM.

As to `CC(C)[C@H](O)C(=O)N[C@H](C(=O)N[C@@H](CC(=O)O)C(=O)CSCc1ccccc1)C(C)C`, the IC50 in experiment [1] is 3.4 µM; in experiment [2] it was 3.01 µM; in experiment [3], 7.34 µM; in experiment [4] it was 0.118 µM.

On to `COc1ccc(Br)cc1[C@H](C(=O)N[C@H](C(=O)N[C@@H](CC(=O)O)C(=O)CSCc1ccccc1)C(C)C)C1CC1`, for which the IC50 is over 10 µM in experiment [1], over 10 µM in experiment [2], over 10 µM in experiment [3] and 0.323 µM in experiment [4].

With `COc1ccc(OC)c(CC(=O)N[C@H](C(=O)N[C@@H](CC(=O)O)C(=O)CSCc2ccccc2)C(C)C)c1`, the figures for the IC50 in experiment [2], in experiment [3] and in experiment [4] were 7.07 µM, 7.91 µM and 0.053 µM, respectively.

For `CC(C)[C@H](NC(=O)C(O)c1ccccc1)C(=O)N[C@@H](CC(=O)O)C(=O)CSCc1ccccc1` (single isomer, unassigned), the IC50 in experiment [1] came to 10.9 µM; in experiment [2], 4.06 µM; in experiment [3] it was 3.65 µM; in experiment [4], 0.1 µM.

Regarding `COc1ccc(C(C)=O)cc1CC(=O)N[C@H](C(=O)N[C@@H](CC(=O)O)C(=O)CSCc1ccccc1)C(C)C`, the IC50 amounted to 0.555 µM in experiment [1], 6.19 µM in experiment [2], 3.88 µM in experiment [3] and 0.013 µM in experiment [4].

Turning to `C#CC[C@@H](C(=O)N[C@H](C(=O)N[C@@H](CC(=O)O)C(=O)CSCc1ccccc1)C(C)C)c1cc(Br)ccc1OC` (stereo in doubt; 14), the concentration for half-maximal inhibition (IC50) in experiment [1] was 0.139 µM; in experiment [2], 1.03 µM; in experiment [3], 0.092 µM; in experiment [4] it was 0.017 µM.

Regarding `CC(C)[C@H](NC(=O)Cc1ccccc1)C(=O)N[C@@H](CC(=O)O)C(=O)CSCc1ccccc1`, the half-inhibitory concentration (IC50) was 21.2 µM in experiment [2] and 22.1 µM in experiment [3].

Take `CC(C)[C@H](NC(=O)C(O)(c1ccccc1)c1ccccc1)C(=O)N[C@@H](CC(=O)O)C(=O)CSCc1ccccc1`: the IC50 is over 10 µM in experiment [1], over 10 µM in experiment [2], over 10 µM in experiment [3] and 1.29 µM in experiment [4].

As for `C#CC[C@@H](C(=O)N[C@H](C(=O)N[C@@H](CC(=O)O)C(=O)CSCc1ccccc1)C(C)C)c1cc(Br)ccc1OC` (stereo in doubt; 13), the IC50 is 3.62 µM in experiment [1], over 10 µM in experiment [2], 4.47 µM in experiment [3] and 0.341 µM in experiment [4].

On to `CO[C@H](C(=O)N[C@H](C(=O)N[C@@H](CC(=O)O)C(=O)CSCc1ccccc1)C(C)C)c1ccccc1`, for which the IC50 is over 10 µM in experiment [1], over 10 µM in experiment [2], 9.17 µM in experiment [3] and 0.425 µM in experiment [4].

Consider `CC(C)[C@H](NC(=O)C(C)(O)c1ccccc1)C(=O)N[C@@H](CC(=O)O)C(=O)CSCc1ccccc1` (stereo not given in full), for which the IC50 was 2.76 µM in experiment [1], 18.9 µM in experiment [2], 8 µM in experiment [3] and 0.085 µM in experiment [4].

Consider `CC(C)[C@H](NC(=O)C(C)(C)O)C(=O)N[C@@H](CC(=O)O)C(=O)CSCc1ccccc1`, for which the IC50 in experiment [1] turned out to be 10.9 µM; in experiment [2] it was 18.4 µM; in experiment [3] it was 13.8 µM; in experiment [4], 0.467 µM.

Take `COc1ccc(-c2nc(C)no2)cc1CC(=O)N[C@H](C(=O)N[C@@H](CC(=O)O)C(=O)CSCc1ccccc1)C(C)C`: the concentration for half-maximal inhibition (IC50) in experiment [1] turned out to be 0.097 µM; in experiment [2], 5.45 µM; in experiment [3] it was 3.29 µM; in experiment [4], 0.009 µM.

Take `COc1ccc(Br)cc1[C@H](C(=O)N[C@H](C(=O)N[C@@H](CC(=O)O)C(=O)CSCc1ccccc1)C(C)C)C(C)C`: the IC50 in experiment [1] and in experiment [2] was over 10 µM each time.

Consider `CC(C)[C@H](NC(=O)[C@H](O)C(C)C)C(=O)N[C@@H](CC(=O)O)C(=O)CSCc1ccccc1`, for which the IC50 in experiment [1] was over 10 µM; in experiment [2], over 10 µM; in experiment [3], 7.27 µM; in experiment [4], 0.33 µM.

In the case of `COc1ccc(Br)cc1CC(=O)N[C@H](C(=O)N[C@@H](CC(=O)O)C(=O)CSCc1ccccc1)C(C)C` (stereo in doubt; 29), the figures for the half-maximal inhibitory concentration (IC50) in experiment [1], in experiment [3] and in experiment [4] were 0.285 µM, 1.89 µM and 0.018 µM, respectively.

For `COc1ccc(Br)cc1CC(=O)N[C@H](C(=O)N[C@@H](CC(=O)O)C(=O)CSCc1ccccc1)C(C)C` (stereo in doubt; 6), the concentration for half-maximal inhibition (IC50) in experiment [1] was 0.284 µM; in experiment [2] it was 3.04 µM; in experiment [3], 1.89 µM; in experiment [4] it was 0.018 µM.

With `COc1ccc(Br)cc1[C@@H](C)C(=O)N[C@H](C(=O)N[C@@H](CC(=O)O)C(=O)CSCc1ccccc1)C(C)C`, the IC50 in experiment [2] is over 10 µM.
